Measured values as given in patent USRE30731E, “Enkephalin analogues” (priority 1977, dated 1981).

How the values were obtained:
mouse vas deferens = mouse vas deferens (M.V.D.) assay; type: cell-based; settings: Met Enkephalin = 100%
Source text: (II)M.V.D. stands for mouse vas deferens
Kosterhtz, H. W. & Leslie. F. M. Br. J. Pharmac. 53, 371, 381,

rat brain membranes = test: radio receptor assay (R.R.A.): displacement of tritiated naloxone from rat brain membranes; type: binding; settings: based on concentration displacing 50% of (3H)naloxone (1 nM) from rat brain membranes; 0.1 M NaCl/50 mM Tris pH 7.4; 15 minutes; bacitracin
Procedure: (III)R.R.A. stands for radio receptor assay; based on the concentration
required to displace 50% of tritiated naloxone from rat brain membranes.
The displacements .[.replacements.]. were carried out against (^3
H)naloxane (lnM) in 0.1 M sodium chloride/50mM Tris buffer at pH 7.4;
incubations were for 15 minutes in the .Iadd.presence
.Iaddend..[.absence.]. of bacitracin. For general reference to the method
see literature as discussed in "Opiate Receptor Mechanisms". S. H. Snyder
and S. Matthysse eds, MIT Press, 1975.

rats = test: tail flick assay, intraventricular administration; type: in vivo, rat; settings: administered intraventricularly to rats
Source text: Also, we have indications of in vivo analgesic effects of the analogues.

Substance: 5-Amino-6-(4'-hdyroxyphenyl)-hexanoyl-glycyl-L-phenylalanyl-L-methionine a mide [Analogue H211]
- Activity Relative to Met Enkephalin, M.V.D. (mouse vas deferens): 0.9%
- Activity Relative to Met Enkephalin, R.R.A. (rat brain membranes): 8%
- analgesia (tail flick assay) (rats): analgesia lasting for several minutes
